# Active and inactive are the calls of the source. No cut-off for these calls is given here.
# Columns and labels:
# Tubulin (Homo sapiens) = Tubulin (Homo sapiens) (UniProt P68371+Q9H4B7+P0DPH7+P68366+Q13509+Q71U36+P04350+Q3ZCM7+P07437+P68363+Q9BQE3+Q6PEY2+Q13885+Q9BVA1+Q9BUF5); experiment: Inhibition of tubulin polymerization (unknown origin) at 0.3 to 3 uM measured upto 4500 secs by fluorescence based analysis; format: protein-complex assay; conditions: dose 0.3-3 µM, time <= 4500.0 sec
# Tubulin = experiment: Inhibition of tubulin polymerization (unknown origin) measured upto 4500 secs by fluorescence based analysis; format: protein-complex assay, Homo sapiens
# KYSE-30 [1] = experiment: Antiproliferative activity against human KYSE-30 cells assessed as reduction in cell viability measured after 48 hrs by CCK-8 method; format: functional, cell-based; conditions: dose 10-70 nM
# ECa-109 cell line [2] = experiment: Antiproliferative activity against human EC109 cells assessed as reduction in cell viability measured after 48 hrs by CCK-8 method; format: functional, cell-based; conditions: dose 10-70 nM
# KYSE-30 [3] = experiment: Antiproliferative activity against human KYSE-30 cells assessed as reduction in cell viability at 70 nM measured after 48 hrs by CCK-8 method relative to control; format: functional
# ECa-109 cell line [4] = experiment: Induction of cell cycle arrest in human EC109 cells assessed as accumulation of cells at G2/M phase at 0 to 40 nM measured after 48 hrs by propidium iodide staining based flow cytometry analysis (reference value: 14.57%); format: functional; conditions: dose 0-40 nM
# ECa-109 cell line [5] = experiment: Induction of cell cycle arrest in human EC109 cells assessed as downregulation of CDK1 level at 40 to 60 nM measured after 48 hrs by Western blot analysis; format: functional, cell-based; conditions: dose 40-60 nM
# ECa-109 cell line [6] = experiment: Induction of cell cycle arrest in human EC109 cells assessed as upregulation of histone H3 phosphorylation level at 40 to 60 nM measured after 48 hrs by Western blot analysis; format: functional, cell-based; conditions: dose 40-60 nM
# KYSE-30 [7] = experiment: Induction of cell cycle arrest in human KYSE-30 cells assessed as downregulation of Wee1 phosphorylation level at 40 to 60 nM measured after 48 hrs by Western blot analysis; format: functional, cell-based; conditions: dose 40-60 nM
# ECa-109 cell line [8] = experiment: Induction of apoptosis in human EC109 cells measured after 48 hrs by annexin V-FITC and PI staining based flow cytometry analysis; format: functional, cell-based; conditions: dose 20-40 nM
# KYSE-30 [9] = experiment: Induction of apoptosis in human KYSE-30 cells assessed as decrease in pro-caspase 3 level at 40 to 100 nM measured after 48 hrs by Western blot analysis; format: functional, cell-based; conditions: dose 40-100 nM
# KYSE-30 [10] = experiment: Induction of apoptosis in human KYSE-30 cells assessed as increase in cleaved caspase 3 level at 40 to 100 nM measured after 48 hrs by Western blot analysis; format: functional, cell-based; conditions: dose 40-100 nM
# ECa-109 cell line [11] = experiment: Induction of apoptosis in human EC109 cells assessed as decrease in pro-caspase 3 level at 40 to 100 nM measured after 48 hrs by Western blot analysis; format: functional, cell-based; conditions: dose 40-100 nM
# Cell membrane [12] = experiment: Induction of mitochondrial membrane depolarization in human EC109 cells at 40 to 60 nM incubated for 24 hrs by flow cytometry analysis; format: cell membranes; conditions: dose 40-60 nM
# Cell membrane [13] = experiment: Induction of mitochondrial membrane depolarization in human EC109 cells assessed as increase in caspase 9 activity at 40 to 60 nM incubated for 24 hrs by flow cytometry analysis; format: cell membranes; conditions: dose 40-60 nM
# ECa-109 cell line [14] = experiment: Induction of apoptosis in human EC109 cells assessed as effect on Bcl-xl level at 40 to 60 nM by flow cytometry analysis; format: functional, cell-based; conditions: dose 40-60 nM
# ECa-109 cell line [15] = experiment: Induction of apoptosis in human EC109 cells assessed as effect on Mcl-1 level at 40 to 60 nM by flow cytometry analysis; format: functional, cell-based; conditions: dose 40-60 nM
# ECa-109 cell line [16] = experiment: Induction of apoptosis in human EC109 cells assessed as increase in Noxa expression level at 40 to 60 nM by flow cytometry analysis; format: functional, cell-based; conditions: dose 40-60 nM
# KYSE-30 [17] = experiment: Induction of apoptosis in human KYSE-30 cells assessed as effect on bax level at 40 to 60 nM by flow cytometry analysis; format: functional, cell-based; conditions: dose 40-60 nM
# KYSE-30 [18] = experiment: Induction of apoptosis in human KYSE-30 cells assessed as effect on bak level at 40 to 60 nM by flow cytometry analysis; format: functional, cell-based; conditions: dose 40-60 nM
# KYSE-30 [19] = experiment: Induction of apoptosis in human KYSE-30 cells assessed as effect on Bcl-xl level at 40 to 60 nM by flow cytometry analysis; format: functional, cell-based; conditions: dose 40-60 nM
# KYSE-30 [20] = experiment: Induction of apoptosis in human KYSE-30 cells assessed as downregulation of XIAP level at 40 to 60 nM by flow cytometry analysis; format: functional, cell-based; conditions: dose 40-60 nM
# ECa-109 = experiment: Downregulation of MST phosphorylation level in human EC109 cells at 40 to 60 nM measured after 48 hrs; format: functional, cell-based; conditions: dose 40-60 nM
# KYSE-30 [21] = experiment: Induction of apoptosis in human KYSE-30 cells assessed as increase in cleaved PARP level at 40 to 100 nM measured after 48 hrs by Western blot analysis; format: functional, cell-based; conditions: dose 40-100 nM
smiles,measurement,setting,value
COc1ccc(CN(C(=O)Cn2cc(CSc3nc4ccccc4s3)nn2)c2cc(OC)c(OC)c(OC)c2)cc1O,inhibition,Tubulin (Homo sapiens),Active
same,IC50,Tubulin,446 nM
same,Activity,KYSE-30 [1],Dose-Dependent Effect
same,Activity,ECa-109 cell line [2],Dose-Dependent Effect
same,Activity,KYSE-30 [3],>90%
same,Activity,ECa-109 cell line [4],55.65%
same,Activity,ECa-109 cell line [5],Active
same,Activity,ECa-109 cell line [6],Active
same,Activity,KYSE-30 [7],Active
same,Activity,ECa-109 cell line [8],Dose-Dependent Effect
same,Activity,KYSE-30 [9],Active
same,Activity,KYSE-30 [10],Active
same,Activity,ECa-109 cell line [11],Active
same,Activity,Cell membrane [12],Active
same,Activity,Cell membrane [13],Active
same,Activity,ECa-109 cell line [14],inactive
same,Activity,ECa-109 cell line [15],inactive
same,Activity,ECa-109 cell line [16],Active
same,Activity,KYSE-30 [17],inactive
same,Activity,KYSE-30 [18],inactive
same,Activity,KYSE-30 [19],inactive
same,Activity,KYSE-30 [20],Active
same,Activity,ECa-109,Active
same,Activity,KYSE-30 [21],Active

# Source: ChEMBL document CHEMBL5518189, “Design, synthesis and biological evaluation of 1,2,3-triazole benzothiazole derivatives as tubulin polymerization inhibitors with potent anti-esophageal cancer activities” (Eur J Med Chem, 2024)
